Laboratory results as given in the NIST ThermoML archive (doi:10.1021/je800964k).
Numbers after ± are expanded uncertainties.

Conditions: Liquid, Hot wire method

With `COC` [dimethyl ether] the thermal conductivity (234.04 K, 5100 kPa) was 0.1561 ± 0.0033 W/m/K, the thermal conductivity (234.2 K, 600 kPa) was 0.1534 ± 0.0031 W/m/K and the thermal conductivity (234.29 K, 600 kPa) was 0.153 ± 0.0031 W/m/K. The thermal conductivity (234.33 K, 10000 kPa) was 0.16 ± 0.0033 W/m/K, the thermal conductivity (234.43 K, 29800 kPa) was 0.1704 ± 0.0035 W/m/K and the thermal conductivity (234.44 K, 30000 kPa) was 0.1709 ± 0.0035 W/m/K. It also gave a thermal conductivity (234.58 K, 600 kPa) of 0.1538 ± 0.0031 W/m/K, a thermal conductivity (234.66 K, 5300 kPa) of 0.1568 ± 0.0033 W/m/K and a thermal conductivity (234.7 K, 20200 kPa) of 0.1655 ± 0.0034 W/m/K. It also gave a thermal conductivity (234.71 K, 10400 kPa) of 0.1605 ± 0.0033 W/m/K, a thermal conductivity (234.72 K, 5300 kPa) of 0.1562 ± 0.0032 W/m/K and a thermal conductivity (234.79 K, 30100 kPa) of 0.1703 ± 0.0035 W/m/K. The thermal conductivity (235 K, 20100 kPa) was 0.1654 ± 0.0034 W/m/K, the thermal conductivity (235.27 K, 20200 kPa) was 0.1655 ± 0.0034 W/m/K and the thermal conductivity (235.32 K, 10700 kPa) was 0.1598 ± 0.0033 W/m/K. For the same compound, the thermal conductivity (253.99 K, 10200 kPa) was 0.1528 ± 0.0031 W/m/K, the thermal conductivity (254.02 K, 600 kPa) was 0.1422 ± 0.0029 W/m/K and the thermal conductivity (254.11 K, 20400 kPa) was 0.1582 ± 0.0032 W/m/K. For the same compound, the thermal conductivity (254.12 K, 30200 kPa) was 0.1633 ± 0.0033 W/m/K, the thermal conductivity (254.16 K, 600 kPa) was 0.1427 ± 0.0029 W/m/K and the thermal conductivity (254.2 K, 20100 kPa) was 0.1579 ± 0.0032 W/m/K. For the same compound, the thermal conductivity (254.22 K, 10400 kPa) was 0.1529 ± 0.0031 W/m/K, the thermal conductivity (254.34 K, 30300 kPa) was 0.1643 ± 0.0033 W/m/K and the thermal conductivity (254.37 K, 20100 kPa) was 0.1583 ± 0.0032 W/m/K. The thermal conductivity (254.42 K, 600 kPa) was 0.1427 ± 0.0029 W/m/K, the thermal conductivity (254.42 K, 5100 kPa) was 0.1467 ± 0.003 W/m/K and the thermal conductivity (254.81 K, 10100 kPa) was 0.1522 ± 0.0031 W/m/K. For the same compound, the thermal conductivity (254.88 K, 5100 kPa) was 0.1466 ± 0.003 W/m/K, the thermal conductivity (255.08 K, 5000 kPa) was 0.1471 ± 0.003 W/m/K and the thermal conductivity (257.35 K, 29900 kPa) was 0.164 ± 0.0033 W/m/K. The thermal conductivity (273.93 K, 5000 kPa) was 0.1396 ± 0.0029 W/m/K, the thermal conductivity (274.08 K, 5100 kPa) was 0.1396 ± 0.0029 W/m/K and the thermal conductivity (274.48 K, 5000 kPa) was 0.1404 ± 0.0029 W/m/K. For the same compound, the thermal conductivity (274.56 K, 29800 kPa) was 0.1585 ± 0.0032 W/m/K, the thermal conductivity (274.57 K, 30400 kPa) was 0.1579 ± 0.0032 W/m/K and the thermal conductivity (274.6 K, 20000 kPa) was 0.1523 ± 0.0031 W/m/K. The thermal conductivity (274.9 K, 10500 kPa) was 0.1456 ± 0.003 W/m/K, the thermal conductivity (274.9 K, 20300 kPa) was 0.1522 ± 0.0031 W/m/K and the thermal conductivity (275.12 K, 20300 kPa) was 0.1523 ± 0.0031 W/m/K. For the same compound, the thermal conductivity (275.22 K, 10200 kPa) was 0.1452 ± 0.003 W/m/K, the thermal conductivity (275.3 K, 30600 kPa) was 0.1582 ± 0.0032 W/m/K and the thermal conductivity (275.31 K, 700 kPa) was 0.1342 ± 0.0028 W/m/K. For the same compound, the thermal conductivity (275.74 K, 700 kPa) was 0.1343 ± 0.0028 W/m/K, the thermal conductivity (276.02 K, 10500 kPa) was 0.1459 ± 0.003 W/m/K and the thermal conductivity (276.44 K, 700 kPa) was 0.1347 ± 0.0028 W/m/K. It also gave a thermal conductivity (293.79 K, 5100 kPa) of 0.1305 ± 0.0027 W/m/K, a thermal conductivity (293.8 K, 800 kPa) of 0.1249 ± 0.0026 W/m/K and a thermal conductivity (294.15 K, 800 kPa) of 0.1252 ± 0.0026 W/m/K. The thermal conductivity (294.16 K, 10000 kPa) was 0.1362 ± 0.0028 W/m/K, the thermal conductivity (294.22 K, 10200 kPa) was 0.1364 ± 0.0028 W/m/K and the thermal conductivity (294.3 K, 29800 kPa) was 0.1495 ± 0.003 W/m/K. The thermal conductivity (294.45 K, 800 kPa) was 0.1248 ± 0.0026 W/m/K, the thermal conductivity (294.45 K, 4900 kPa) was 0.1305 ± 0.0027 W/m/K and the thermal conductivity (294.59 K, 29900 kPa) was 0.1486 ± 0.003 W/m/K. It also gave a thermal conductivity (294.68 K, 20600 kPa) of 0.1417 ± 0.0029 W/m/K, a thermal conductivity (294.84 K, 5200 kPa) of 0.1307 ± 0.0027 W/m/K and a thermal conductivity (295.13 K, 20300 kPa) of 0.1417 ± 0.0029 W/m/K. For the same compound, the thermal conductivity (295.22 K, 10000 kPa) was 0.1356 ± 0.0028 W/m/K, the thermal conductivity (296.32 K, 20200 kPa) was 0.1415 ± 0.0029 W/m/K and the thermal conductivity (314.01 K, 5100 kPa) was 0.1191 ± 0.0024 W/m/K. For the same compound, the thermal conductivity (314.06 K, 1000 kPa) was 0.1143 ± 0.0023 W/m/K, the thermal conductivity (314.11 K, 5200 kPa) was 0.1189 ± 0.0024 W/m/K and the thermal conductivity (314.39 K, 1000 kPa) was 0.1145 ± 0.0024 W/m/K. It also gave a thermal conductivity (314.39 K, 5100 kPa) of 0.1195 ± 0.0024 W/m/K, a thermal conductivity (314.43 K, 10200 kPa) of 0.1242 ± 0.0025 W/m/K and a thermal conductivity (314.6 K, 30100 kPa) of 0.1385 ± 0.0028 W/m/K. The thermal conductivity (314.66 K, 1000 kPa) was 0.1137 ± 0.0023 W/m/K, the thermal conductivity (314.81 K, 10200 kPa) was 0.1241 ± 0.0025 W/m/K and the thermal conductivity (314.88 K, 30000 kPa) was 0.1382 ± 0.0028 W/m/K. It also gave a thermal conductivity (315.01 K, 20400 kPa) of 0.1313 ± 0.0027 W/m/K, a thermal conductivity (315.06 K, 10100 kPa) of 0.1242 ± 0.0025 W/m/K and a thermal conductivity (315.07 K, 20100 kPa) of 0.1318 ± 0.0027 W/m/K. It also gave a thermal conductivity (315.37 K, 30400 kPa) of 0.1384 ± 0.0028 W/m/K, a thermal conductivity (315.55 K, 20000 kPa) of 0.1318 ± 0.0027 W/m/K and a thermal conductivity (333.73 K, 1500 kPa) of 0.1079 ± 0.0022 W/m/K. For the same compound, the thermal conductivity (333.92 K, 5200 kPa) was 0.1113 ± 0.0023 W/m/K, the thermal conductivity (334.03 K, 1500 kPa) was 0.1075 ± 0.0022 W/m/K and the thermal conductivity (334.09 K, 30000 kPa) was 0.1283 ± 0.0028 W/m/K. It also gave a thermal conductivity (334.31 K, 20200 kPa) of 0.1229 ± 0.0025 W/m/K, a thermal conductivity (334.38 K, 30100 kPa) of 0.1287 ± 0.0027 W/m/K and a thermal conductivity (334.47 K, 1500 kPa) of 0.1078 ± 0.0022 W/m/K. The thermal conductivity (334.55 K, 5100 kPa) was 0.1108 ± 0.0023 W/m/K, the thermal conductivity (334.7 K, 10200 kPa) was 0.1156 ± 0.0024 W/m/K and the thermal conductivity (334.79 K, 20200 kPa) was 0.1224 ± 0.0025 W/m/K. It also gave a thermal conductivity (334.85 K, 5200 kPa) of 0.1116 ± 0.0023 W/m/K, a thermal conductivity (334.9 K, 30200 kPa) of 0.1288 ± 0.0027 W/m/K and a thermal conductivity (334.91 K, 10200 kPa) of 0.1154 ± 0.0024 W/m/K. It also gave a thermal conductivity (335.09 K, 30400 kPa) of 0.1294 ± 0.0027 W/m/K, a thermal conductivity (335.29 K, 20100 kPa) of 0.1228 ± 0.0025 W/m/K and a thermal conductivity (335.37 K, 10100 kPa) of 0.1151 ± 0.0024 W/m/K. The thermal conductivity (335.72 K, 20000 kPa) was 0.1223 ± 0.0025 W/m/K, the thermal conductivity (335.76 K, 10300 kPa) was 0.1146 ± 0.0023 W/m/K and the thermal conductivity (353.73 K, 10300 kPa) was 0.1059 ± 0.0022 W/m/K. For the same compound, the thermal conductivity (353.93 K, 30500 kPa) was 0.1206 ± 0.0025 W/m/K, the thermal conductivity (353.97 K, 30100 kPa) was 0.1208 ± 0.0025 W/m/K and the thermal conductivity (354.06 K, 10200 kPa) was 0.1053 ± 0.0022 W/m/K. For the same compound, the thermal conductivity (354.1 K, 20400 kPa) was 0.1145 ± 0.0023 W/m/K, the thermal conductivity (354.15 K, 5800 kPa) was 0.0998 ± 0.0021 W/m/K and the thermal conductivity (354.21 K, 2300 kPa) was 0.0973 ± 0.002 W/m/K. It also gave a thermal conductivity (354.29 K, 5300 kPa) of 0.1005 ± 0.0021 W/m/K, a thermal conductivity (354.45 K, 2300 kPa) of 0.097 ± 0.002 W/m/K and a thermal conductivity (354.59 K, 30100 kPa) of 0.1208 ± 0.0025 W/m/K. The thermal conductivity (354.86 K, 2300 kPa) was 0.0971 ± 0.002 W/m/K, the thermal conductivity (354.97 K, 5200 kPa) was 0.1 ± 0.0021 W/m/K and the thermal conductivity (355.08 K, 20000 kPa) was 0.1141 ± 0.0023 W/m/K. The thermal conductivity (355.18 K, 2300 kPa) was 0.0971 ± 0.002 W/m/K, the thermal conductivity (355.36 K, 20100 kPa) was 0.1142 ± 0.0023 W/m/K and the thermal conductivity (355.46 K, 5200 kPa) was 0.1012 ± 0.0021 W/m/K. For the same compound, the thermal conductivity (374.25 K, 10700 kPa) was 0.0988 ± 0.002 W/m/K, the thermal conductivity (374.25 K, 20500 kPa) was 0.1071 ± 0.0022 W/m/K and the thermal conductivity (374.3 K, 30400 kPa) was 0.1129 ± 0.0023 W/m/K. The thermal conductivity (374.62 K, 30300 kPa) was 0.1133 ± 0.0023 W/m/K, the thermal conductivity (374.81 K, 29900 kPa) was 0.1135 ± 0.0023 W/m/K and the thermal conductivity (374.85 K, 3300 kPa) was 0.0871 ± 0.0018 W/m/K. The thermal conductivity (374.85 K, 5100 kPa) was 0.0908 ± 0.0019 W/m/K, the thermal conductivity (374.91 K, 5000 kPa) was 0.0908 ± 0.0019 W/m/K and the thermal conductivity (375.13 K, 3300 kPa) was 0.0869 ± 0.0019 W/m/K. The thermal conductivity (375.27 K, 5000 kPa) was 0.0911 ± 0.0019 W/m/K, the thermal conductivity (375.38 K, 3300 kPa) was 0.0867 ± 0.0018 W/m/K and the thermal conductivity (375.68 K, 20200 kPa) was 0.1065 ± 0.0022 W/m/K. For the same compound, the thermal conductivity (376.02 K, 20000 kPa) was 0.1065 ± 0.0022 W/m/K and the thermal conductivity (376.38 K, 10600 kPa) was 0.0976 ± 0.002 W/m/K.
